Laboratory results taken from US6875764B1, “Urea and thiourea compounds useful for treatment of coccidiosis” (New Pharma Research Sweden AB, priority 1999, dated 2005).

Legend:
[1] = tested on: Eimeria spp. (E. acervulina, E. maxima, E. necatrix, E. tenella and E. brunetti); assay: Prophylactic anticoccidial evaluation in vivo in chickens of Habbared X breed, drug in feed; design: species or system chicken; settings: for Average number of Eimeria spp. oocysts/g faeces, day after hatch 14: day 14 after hatch; for Average number of Eimeria spp. oocysts/g faeces, day after hatch 14 / Average number of Eimeria spp. oocysts/g faeces, day after hatch 15 / Average number of Eimeria spp. oocysts/g faeces, day after hatch 16 / Average number of Eimeria spp. oocysts/g faeces, day after hatch 17 / Average number of Eimeria spp. oocysts/g faeces, day after hatch 18 / Average number of Eimeria spp. oocysts/g faeces, day after hatch 19 / Average number of Eimeria spp. oocysts/g faeces, day after hatch 21: infected orally day 10; for Average number of Eimeria spp. oocysts/g faeces, day after hatch 14 / Average number of Eimeria spp. oocysts/g faeces, day after hatch 15 / Average number of Eimeria spp. oocysts/g faeces, day after hatch 16 / Average number of Eimeria spp. oocysts/g faeces, day after hatch 17 / Average number of Eimeria spp. oocysts/g faeces, day after hatch 18 / Average number of Eimeria spp. oocysts/g faeces, day after hatch 19 / Average number of Eimeria spp. oocysts/g faeces, day after hatch 21 / Mean body weight / Mean amount of feed consumed / Average number of Eimeria spp. oocysts/g faeces, Total: in feed B49 100 ppm, B42 150 ppm, B46 100 ppm, Coxistac 60 ppm; for Average number of Eimeria spp. oocysts/g faeces, day after hatch 15: day 15 after hatch; for Average number of Eimeria spp. oocysts/g faeces, day after hatch 16: day 16 after hatch; for Average number of Eimeria spp. oocysts/g faeces, day after hatch 17: day 17 after hatch; for Average number of Eimeria spp. oocysts/g faeces, day after hatch 18: day 18 after hatch; for Average number of Eimeria spp. oocysts/g faeces, day after hatch 19: day 19 after hatch; for Average number of Eimeria spp. oocysts/g faeces, day after hatch 21: day 21 after hatch; for Mean body weight: final weight; for Mean amount of feed consumed: mean total amount per bird; for Average number of Eimeria spp. oocysts/g faeces, Total: total of days 14 to 21 after hatch; for duration of the anticoccidial infection as compared to Coxistac: B49 100 ppm, B42 150 ppm vs Coxistac 60 ppm
Method: (§1) The antiparasitic activity of the present compounds as prophylactic agents was evaluated in vivo on 100 one day old (1 day after hatch) chickens of Habbared X breed. The chickens were divided into five groups of 20 birds each, and each group was located in a separate pen (1 m×1 m). The chickens were then fed with unmedicated food up to day 7 after hatch. Fresh water was supplied ad libitum.
(§2) On day 8 after hatch, the five groups were given feed containing the following compounds (1 ppm=1 mg drug/kg feed): • Group #1: B49 (100 ppm); • Group #2: B42 (150 ppm); • Group #3: B46 (100 ppm); • Group #4: Coxistac (60 ppm), a known anticoccidial agent (see U.S. Pat. No. 3,857,948); • Group #5: no drug content (control group).
(§3) The chickens were fed as above on day 8 and 9 after hatch. On day 10 after hatch, each chicken was infected orally by 6 000-7 000 oocysts containing a mixture of 5 mature sporulated strains, namely E. acervulina, E. maxima, E. necatrix, E. tenella and E. brunetti. The groups #1-4 received drug as above from day 10 to 21 after hatch.
(§4) From day 14 to 21 after hatch, fresh fecal droplets were collected and examined daily. The average number of oocysts/g faeces was then calculated in accordance with the co-called Mc-Master technique (Soulsby, 1984).

[2] = tested on: mixture of 8 mature sporulated strains (E. mitis, E. hagani, E. praecox, E. acervulina, E. maxima, E. necatrix, E. tenella and E. brunetti); assay: Prophylactic anticoccidial evaluation in chickens of Arbor Aker breed; type: in vivo, chicken; settings: 100 ppm in feed from day 3 after hatch, infected orally day 7
Method: as §1, §2, §3, §4
Moreover, the prophylactic anticoccidial effect of B42, B49 and B51 was also evaluated in chickens of Arbor Aker breed. These trials were conducted by using basically the same test protocol as that used for the chickens of Habbared X breed, albeit with the following modifications: • i) On day 3 after hatch, the tested groups of chickens receieved feed containing 100 ppm of B42, B49, B51 or Coxistac (60 ppm); • ii) On day 7 after hatch, the chickens were infected orally by oocysts containing a mixture of 8 mature sporulated strains, namely E. mitis, E. hagani, E. praecox, E. acervulina, E. maxima, E. necatrix, E. tenella and E. brunetti.

Compound | feed consumption lower in comparison with the Coxistac treated group ([1]; Habbared X chickens, B46 100 ppm vs Coxistac 60 ppm) | body weight gain ([1]; Habbared X chickens, feed containing B46 100 ppm) | Average number of Eimeria spp. oocysts/g faeces, day after hatch 14 [1] | Average number of Eimeria spp. oocysts/g faeces, day after hatch 15 [1] | Average number of Eimeria spp. oocysts/g faeces, day after hatch 16 [1] | Average number of Eimeria spp. oocysts/g faeces, day after hatch 17 [1] | Average number of Eimeria spp. oocysts/g faeces, day after hatch 18 [1] | Average number of Eimeria spp. oocysts/g faeces, day after hatch 19 [1] | Average number of Eimeria spp. oocysts/g faeces, day after hatch 21 [1] | Mean body weight [1] | Mean amount of feed consumed [1] | Average number of Eimeria spp. oocysts/g faeces, Total [1] | duration of the anticoccidial infection as compared to Coxistac ([1]; Habbared X chickens) | prophylactic anticoccidial effect, results in words [2]
4-nitro-N-{[4-({4-nitro[(4-nitrophenyl)sulfonyl]anilino}-carbothioyl)-1-piperazinyl]carbothioyl}-N-(4-nitrophenyl)benzenesulfonamide [Compound B46] | ~67% | fair body weight gain | 0.0 oocysts/g faeces | 3000 oocysts/g faeces | 14000 oocysts/g faeces | 99000 oocysts/g faeces | 6000 oocysts/g faeces | 0.0 oocysts/g faeces | 0.0 oocysts/g faeces | 54.5 g | 39.3 g | 122000 oocysts/g faeces |  | 
O=[N+]([O-])c1ccc(S(=O)(=O)N(C(=S)N(c2nc3ccc([N+](=O)[O-])cc3s2)S(=O)(=O)c2ccc([N+](=O)[O-])cc2)c2ccc(F)cc2)cc1 [Compound B42, N-(4-fluorophenyl)-4-nitro-N-({(6-nitro-1,3-benzothiazol-2-yl)[(4-nitrophenyl)sulfonyl]amino}carbothioyl)benzene-sulfonamide] |  |  | 0.0 oocysts/g faeces | 0.0 oocysts/g faeces | 3000 oocysts/g faeces | 7000 oocysts/g faeces | 0.0 oocysts/g faeces | 0.0 oocysts/g faeces | 0.0 oocysts/g faeces | 61.0 g | 93 g | 10000 oocysts/g faeces | shorter | essentially the same as those reported for the trials with the chickens of Habbared X breed
O=C(O)c1cc(I)c(NC(=S)Nc2ccccc2)c(I)c1 [Compound B49, 4-[(anilinocarbothioyl)amino]-3,5-diiodobenzoic acid] |  |  | 0.0 oocysts/g faeces | 3000 oocysts/g faeces | 10000 oocysts/g faeces | 20000 oocysts/g faeces | 0.0 oocysts/g faeces | 0.0 oocysts/g faeces | 0.0 oocysts/g faeces | 66.0 g | 95 g | 33000 oocysts/g faeces | shorter | essentially the same as those reported for the trials with the chickens of Habbared X breed
N#Cc1ccc(NC(=S)Nc2ccc([N+](=O)[O-])cc2)cc1 [Compound B51, N-(4-cyanophenyl)-N′-(4-nitrophenyl) thiourea] |  |  |  |  |  |  |  |  |  |  |  |  |  | comparable with those of B42
CC[C@@H](C(=O)[C@@H](C)[C@@H](O)[C@H](C)[C@@H]1O[C@@H]([C@@H](CC)C(=O)O)CC[C@@H]1C)[C@H]1O[C@]2(C=C[C@@H](O)[C@]3(CC[C@@](C)([C@H]4CC[C@](O)(CC)[C@H](C)O4)O3)O2)[C@H](C)C[C@@H]1C [Coxistac, reference compound] |  |  | 0.0 oocysts/g faeces | 3000 oocysts/g faeces | 4000 oocysts/g faeces | 7000 oocysts/g faeces | 2000 oocysts/g faeces | 2000 oocysts/g faeces | 0.0 oocysts/g faeces | 62.0 g | 120 g | 18000 oocysts/g faeces |  | 
